Experimental data published in US20200206233A1 (INTEGRAL BIOSCIENCES PRIVATE LIMITED, priority 2018, published 2020).

Target: T1, IDH1 mutant (R132H) (Homo sapiens, UniProt O75874, R132H)
T1 construct: purchased BPS Bioscience 71099-2
Experiment: Mutant IDH1-R132H Fluorescence Assay (Resazurin based)
Assay type: biochemical
Details: 10 nM IDH1 R132H, 4 mM α-ketoglutarate, NADPH, 1.5 h at room temperature
Description: IC50 values of compounds against IDH1 mutant (R132H) was determined by Resazurin based Fluorescence assay. Assays were performed in Buffer (25 mM Tris HCl, 150 mM NaCl, 10 mM MgCl2, 0.03% BSA, 2 mM 1-mercaptoethanol) where total reaction volume was 12.5 μL in low-volume 384-well plates (Cat #4511, Corning). Serially diluted compounds (3-fold) were incubated with cocktail of α-ketoglutarate (4 mM; Cat #75892-25G, Sigma), NADPH ([…]; Cat # N1630-100MG, Sigma) and buffer for 5 min, following IDH1 R132H mutant (10 nM; Cat #71099-2, BPS Bioscience) was added and incubated in dark at room temperature for 1.5 h. After 1.5 h, 6.25 μL detection solution containing Resazurin ([…]; (Cat #62758-13-8, Sigma) and Diaphorase (40 ug/ml; Cat # D2197-300UN, Sigma) in buffer was added and incubated for 15 min. Readings were taken in a Synergy Neo Plate reader (BioTek, Winooski) at single excitation of 540 nm and emission at 590 nm respectively.
The % (percent) activity of test samples was calculated as (Sample−Min)×100/(Max−Min). [Max: DMSO control, complete reaction with enzyme with DMSO and Min: No enzyme with DMSO]. Percent inhibition (100−% activity) was fitted to the “four-parameter logistic model” in XLfit for determination of IC50 values.

T1 sequence (O75874 whole entry R132H): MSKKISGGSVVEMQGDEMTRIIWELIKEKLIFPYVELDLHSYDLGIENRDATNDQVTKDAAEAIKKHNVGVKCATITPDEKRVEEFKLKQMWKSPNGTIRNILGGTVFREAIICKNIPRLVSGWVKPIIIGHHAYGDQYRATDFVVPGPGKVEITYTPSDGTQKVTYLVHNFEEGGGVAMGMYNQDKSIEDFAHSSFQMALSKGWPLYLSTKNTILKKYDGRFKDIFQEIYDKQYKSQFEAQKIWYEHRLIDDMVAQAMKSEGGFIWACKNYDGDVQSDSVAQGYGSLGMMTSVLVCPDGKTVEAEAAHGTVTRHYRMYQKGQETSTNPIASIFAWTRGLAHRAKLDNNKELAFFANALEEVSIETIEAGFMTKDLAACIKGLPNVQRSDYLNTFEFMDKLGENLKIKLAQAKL

Structure (SMILES)	IC50 [µM]
CC[C@H]1COC(=O)N1c1nc(C)nc(NC(C)(C)c2ccc(Oc3ccccc3)cc2)n1 [Compound 1.111, (S)-4-ethyl-3-(4-methyl-6-(2-(4-phenoxyphenyl)propan-2-ylamino)-1,3,5-triazin-2-yl)oxazolidin-2-one]	2.51
CC[C@H]1COC(=O)N1c1nc(C)nc(N[C@H](C)c2cc3cc(Cl)ccc3[nH]c2=O)n1 [Compound 1.39, (S)-3-(4-((R)-1-(6-chloro-2-oxo-1,2-dihydroquinolin-3-yl)ethylamino)-6-methyl-1,3,5-triazin-2-yl)-4-ethyloxazolidin-2-one]	> 30
CC[C@H]1COC(=O)N1c1nc(C)nc(N[C@@H](C)c2cc3ccccc3[nH]c2=O)n1 [Compound 1.45, (S)-4-ethyl-3-(4-methyl-6-((S)-1-(2-oxo-1,2-dihydroquinolin-3-yl)ethylamino)-1,3,5-triazin-2-yl)oxazolidin-2-one]	1.79
CC[C@H]1COC(=O)N1c1nc(C)nc(N[C@H](C)c2ccc(OCc3ccccc3)cc2)n1 [Compound 1.72, (S)-3-(4-((R)-1-(4-(benzyloxy)phenyl)ethylamino)-6-methyl-1,3,5-triazin-2-yl)-4-ethyloxazolidin-2-one]	> 30
CC[C@H]1COC(=O)N1c1nc(C)nc(N[C@@H](C)c2ccc3c(-c4ccccc4)cn(C)c3c2)n1 [Compound 1.101, (S)-4-ethyl-3-(4-methyl-6-((S)-1-(1-methyl-3-phenyl-1H-indol-6-yl)ethylamino)-1,3,5-triazin-2-yl)oxazolidin-2-one]	13.6
CC[C@H]1COC(=O)N1c1nc(C)nc(NC(C)c2cn(-c3ccc(Cl)cc3)cn2)n1 (single isomer, unassigned) [Compound 1.51]	> 22.9
CC(C)[C@H]1COC(=O)N1c1ncnc(N[C@H](C)c2ccc(Oc3ccccc3)cn2)n1 [Compound 1.18, (S)-4-isopropyl-3-(4-((R)-1-(5-phenoxypyridin-2-yl)ethylamino)-1,3,5-triazin-2-yl)oxazolidin-2-one]	> 30
CC[C@H]1COC(=O)N1c1nc(C)nc(N[C@@H](C)c2ccc(OCc3ccccc3)cc2)n1 [Compound 1.73, (S)-3-(4-((S)-1-(4-(benzyloxy)phenyl)ethylamino)-6-methyl-1,3,5-triazin-2-yl)-4-ethyloxazolidin-2-one]	15.4
CC[C@H]1COC(=O)N1c1nc(C)nc(N[C@H](C)c2ccc(CN3CCN(C(C)=O)CC3)cc2)n1 [Compound 1.99, (S)-3-(4-((R)-1-(4-((4-acetylpiperazin-1-yl)methyl)phenyl)ethylamino)-6-methyl-1,3,5-triazin-2-yl)-4-ethyloxazolidin-2-one]	> 30
CC[C@H]1COC(=O)N1c1nc(C)nc(N[C@H](C)c2ccc(Sc3ccc(F)cc3)cc2)n1 [Compound 1.91, (S)-4-ethyl-3-(4-((R)-1-(4-(4-fluorophenylthio)phenyl)ethylamino)-6-methyl-1,3,5-triazin-2-yl)oxazolidin-2-one]	> 30
CC[C@H]1COC(=O)N1c1nc(N[C@@H](C)c2ccc(Oc3ccccc3)cc2)nc(C2CC2)n1 [Compound 1.71, (S)-3-(4-cyclopropyl-6-((S)-1-(4-phenoxyphenyl)ethylamino)-1,3,5-triazin-2-yl)-4-ethyloxazolidin-2-one]	2.44
CC(C)[C@H]1COC(=O)N1c1ncnc(N[C@H](C)c2cc3cc(Cl)ccc3[nH]c2=O)n1 [Compound 1.22, (S)-3-(4-((R)-1-(6-chloro-2-oxo-1,2-dihydroquinolin-3-yl)ethylamino)-1,3,5-triazin-2-yl)-4-isopropyloxazolidin-2-one]	> 30
CC[C@H]1COC(=O)N1c1nc(C)nc(N[C@H](C)c2ccc(C(=O)Nc3ccccc3)cc2)n1 [Compound 1.102, 4-((R)-1-(4-((S)-4-ethyl-2-oxooxazolidin-3-yl)-6-methyl-1,3,5-triazin-2-ylamino)ethyl)-N-phenylbenzamide]	> 30
